Measured values from PubChem BioAssay (NCI).
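Briefly, cells in 96-well plates were exposed to five compound concentrations for 48 h, and endpoints were estimated by linear interpolation. TGI is the concentration that stops growth completely.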

Columns and labels:
Test in all cases: NCI anticancer screen, dose series, 48 h
786-0 renal = test system: 786-0 renal
A498 renal = test system: A498 renal
A549 NSCLC = test system: A549 NSCLC
ACHN renal = test system: ACHN renal
BT-549 breast = test system: BT-549 breast
CAKI-1 renal = test system: CAKI-1 renal
CCRF-CEM leukemia = test system: CCRF-CEM leukemia
COLO 205 colon = test system: COLO 205 colon
DU-145 prostate = test system: DU-145 prostate
EKVX NSCLC = test system: EKVX NSCLC
HCC-2998 colon = test system: HCC-2998 colon
HCT-116 colon = test system: HCT-116 colon
HCT-15 colon = test system: HCT-15 colon
HL-60(TB) leukemia = test system: HL-60(TB) leukemia
HOP-62 NSCLC = test system: HOP-62 NSCLC
HOP-92 NSCLC = test system: HOP-92 NSCLC
HS 578T breast = test system: HS 578T breast
HT29 colon = test system: HT29 colon
IGROV1 ovarian = test system: IGROV1 ovarian
K-562 leukemia = test system: K-562 leukemia
KM12 colon = test system: KM12 colon
LOX IMVI melanoma = test system: LOX IMVI melanoma
M14 melanoma = test system: M14 melanoma
MALME-3M melanoma = test system: MALME-3M melanoma
MCF7 breast = test system: MCF7 breast
MDA-MB-231 breast = test system: MDA-MB-231 breast
MDA-MB-435 = test system: MDA-MB-435
MDA-N = test system: MDA-N
MOLT-4 leukemia = test system: MOLT-4 leukemia
NCI-H226 lung = test system: NCI-H226 lung
NCI-H23 lung = test system: NCI-H23 lung
NCI-H460 lung = test system: NCI-H460 lung
NCI-H522 lung = test system: NCI-H522 lung
NCI/ADR-RES ovarian = test system: NCI/ADR-RES ovarian
OVCAR-3 ovarian = test system: OVCAR-3 ovarian
OVCAR-4 ovarian = test system: OVCAR-4 ovarian
OVCAR-5 ovarian = test system: OVCAR-5 ovarian
OVCAR-8 ovarian = test system: OVCAR-8 ovarian
PC-3 prostate = test system: PC-3 prostate
RXF 393 renal = test system: RXF 393 renal
SF-268 CNS = test system: SF-268 CNS
SF-295 CNS = test system: SF-295 CNS
SF-539 CNS = test system: SF-539 CNS
SK-MEL-2 melanoma = test system: SK-MEL-2 melanoma
SK-MEL-28 melanoma = test system: SK-MEL-28 melanoma
SK-MEL-5 melanoma = test system: SK-MEL-5 melanoma
SK-OV-3 ovarian = test system: SK-OV-3 ovarian
SN12C renal = test system: SN12C renal
SNB-19 CNS = test system: SNB-19 CNS
SNB-75 CNS = test system: SNB-75 CNS
SR leukemia = test system: SR leukemia
SW-620 colon = test system: SW-620 colon
T-47D breast = test system: T-47D breast
TK-10 renal = test system: TK-10 renal
U251 CNS = test system: U251 CNS
UACC-257 melanoma = test system: UACC-257 melanoma
UACC-62 melanoma = test system: UACC-62 melanoma
UO-31 renal = test system: UO-31 renal
RPMI-8226 leukemia = test system: RPMI-8226 leukemia

CCN1CCC(O)(/C=C/c2ccc(C(C)C)cc2)C(C(=O)/C=C/c2ccc(C(C)C)cc2)C1 (stereo unspecified)
TGI (786-0 renal): 3.4 µM
TGI (A498 renal): 19.1 µM
TGI (A549 NSCLC): 11.5 µM
TGI (ACHN renal): 3.31 µM
TGI (BT-549 breast): 16.2 µM
TGI (CAKI-1 renal): 8.86 µM
TGI (CCRF-CEM leukemia): 4.36 µM
TGI (COLO 205 colon): 5.11 µM
TGI (DU-145 prostate): 9.76 µM
TGI (EKVX NSCLC): 5.74 µM
TGI (HCC-2998 colon): 3.64 µM
TGI (HCT-116 colon): 3.53 µM
TGI (HCT-15 colon): 4.63 µM
TGI (HL-60(TB) leukemia): > 26.8 µM
TGI (HOP-62 NSCLC): 13.3 µM
TGI (HOP-92 NSCLC): 3.69 µM
TGI (HS 578T breast): 5.68 µM
TGI (HT29 colon): 6.21 µM
TGI (IGROV1 ovarian): 6.79 µM
TGI (K-562 leukemia): > 29 µM
TGI (KM12 colon): 4.87 µM
TGI (LOX IMVI melanoma): 3.38 µM
TGI (M14 melanoma): > 40.5 µM
TGI (MALME-3M melanoma): 10.5 µM
TGI (MCF7 breast): 14 µM
TGI (MDA-MB-231 breast): 3.82 µM
TGI (MDA-MB-435): 8.99 µM
TGI (MDA-N): 5 µM
TGI (MOLT-4 leukemia): 5.18 µM
TGI (NCI-H226 lung): 9.06 µM
TGI (NCI-H23 lung): 5.88 µM
TGI (NCI-H460 lung): 3.35 µM
TGI (NCI-H522 lung): 4.21 µM
TGI (NCI/ADR-RES ovarian): 8.44 µM
TGI (OVCAR-3 ovarian): 11.7 µM
TGI (OVCAR-4 ovarian): 8.71 µM
TGI (OVCAR-5 ovarian): 12 µM
TGI (OVCAR-8 ovarian): 4.31 µM
TGI (PC-3 prostate): 11.4 µM
TGI (RXF 393 renal): 6.59 µM
TGI (SF-268 CNS): 4.31 µM
TGI (SF-295 CNS): 9.36 µM
TGI (SF-539 CNS): 4.58 µM
TGI (SK-MEL-2 melanoma): 10.5 µM
TGI (SK-MEL-28 melanoma): 11.7 µM
TGI (SK-MEL-5 melanoma): 12.7 µM
TGI (SK-OV-3 ovarian): 31.8 µM
TGI (SN12C renal): 6.06 µM
TGI (SNB-19 CNS): 15.5 µM
TGI (SNB-75 CNS): 11.7 µM
TGI (SR leukemia): > 20.9 µM
TGI (SW-620 colon): 7.25 µM
TGI (T-47D breast): 6.19 µM
TGI (TK-10 renal): 6.16 µM
TGI (U251 CNS): 7.32 µM
TGI (UACC-257 melanoma): 19.4 µM
TGI (UACC-62 melanoma): 15.7 µM
TGI (UO-31 renal): 7.88 µM

C[C@H]1COC2=C1C(=O)C(=O)c1c2ccc2c1CCCC2(C)C
TGI (786-0 renal): 35.2 µM
TGI (A498 renal): 52.6 µM
TGI (A549 NSCLC): 4.55 µM
TGI (ACHN renal): > 81.7 µM
TGI (BT-549 breast): 5.71 µM
TGI (CAKI-1 renal): > 54.9 µM
TGI (CCRF-CEM leukemia): > 39.5 µM
TGI (COLO 205 colon): 4.19 µM
TGI (DU-145 prostate): 2.08 µM
TGI (EKVX NSCLC): 71.7 µM
TGI (HCC-2998 colon): 19.6 µM
TGI (HCT-116 colon): 46.3 µM
TGI (HCT-15 colon): 18.6 µM
TGI (HL-60(TB) leukemia): 42.3 µM
TGI (HOP-62 NSCLC): 21.2 µM
TGI (HOP-92 NSCLC): > 100 µM
TGI (HS 578T breast): 9.55 µM
TGI (HT29 colon): 7.39 µM
TGI (IGROV1 ovarian): 29.2 µM
TGI (K-562 leukemia): > 100 µM
TGI (KM12 colon): 37 µM
TGI (LOX IMVI melanoma): 14.4 µM
TGI (M14 melanoma): 3.15 µM
TGI (MALME-3M melanoma): 2.07 µM
TGI (MCF7 breast): 7.88 µM
TGI (MDA-MB-231 breast): > 100 µM
TGI (MDA-MB-435): 2.74 µM
TGI (MDA-N): 3.26 µM
TGI (MOLT-4 leukemia): > 56.2 µM
TGI (NCI-H226 lung): 24.1 µM
TGI (NCI-H23 lung): 3.57 µM
TGI (NCI-H460 lung): > 34.5 µM
TGI (NCI-H522 lung): 12.3 µM
TGI (NCI/ADR-RES ovarian): 24 µM
TGI (OVCAR-3 ovarian): 5.92 µM
TGI (OVCAR-4 ovarian): > 100 µM
TGI (OVCAR-5 ovarian): > 91.4 µM
TGI (OVCAR-8 ovarian): 22.9 µM
TGI (PC-3 prostate): > 64.5 µM
TGI (RPMI-8226 leukemia): 71.2 µM
TGI (RXF 393 renal): 55.6 µM
TGI (SF-268 CNS): 44.4 µM
TGI (SF-295 CNS): 3.73 µM
TGI (SF-539 CNS): 18.2 µM
TGI (SK-MEL-2 melanoma): 15.3 µM
TGI (SK-MEL-28 melanoma): 20.6 µM
TGI (SK-MEL-5 melanoma): 1.43 µM
TGI (SK-OV-3 ovarian): 83.6 µM
TGI (SN12C renal): 21.1 µM
TGI (SNB-19 CNS): 66.4 µM
TGI (SNB-75 CNS): 3.81 µM
TGI (SR leukemia): > 42.7 µM
TGI (SW-620 colon): 34.5 µM
TGI (T-47D breast): > 100 µM
TGI (TK-10 renal): 65.9 µM
TGI (U251 CNS): 27.4 µM
TGI (UACC-257 melanoma): 6.46 µM
TGI (UACC-62 melanoma): 8.2 µM
TGI (UO-31 renal): 14.3 µM

c1ccc(CN2CCN3CCN(CC2)CCN(Cc2ccccc2)CC3)cc1
TGI (786-0 renal): 18.2 µM
TGI (A498 renal): 27.5 µM
TGI (A549 NSCLC): > 56.1 µM
TGI (ACHN renal): 65.6 µM
TGI (BT-549 breast): 17.6 µM
TGI (CAKI-1 renal): > 88.3 µM
TGI (CCRF-CEM leukemia): 26.1 µM
TGI (COLO 205 colon): 5.06 µM
TGI (DU-145 prostate): 29.6 µM
TGI (EKVX NSCLC): 32.6 µM
TGI (HCC-2998 colon): 23.3 µM
TGI (HCT-116 colon): 16.4 µM
TGI (HCT-15 colon): > 88.8 µM
TGI (HL-60(TB) leukemia): 8.32 µM
TGI (HOP-62 NSCLC): 32.5 µM
TGI (HOP-92 NSCLC): 21.9 µM
TGI (HS 578T breast): 35.5 µM
TGI (HT29 colon): 17.2 µM
TGI (IGROV1 ovarian): 22.1 µM
TGI (K-562 leukemia): 25.6 µM
TGI (KM12 colon): 14.6 µM
TGI (LOX IMVI melanoma): 25.7 µM
TGI (M14 melanoma): 19.6 µM
TGI (MALME-3M melanoma): 8.01 µM
TGI (MCF7 breast): 18.8 µM
TGI (MDA-MB-231 breast): 18.4 µM
TGI (MDA-MB-435): 12.6 µM
TGI (MDA-N): 12.2 µM
TGI (MOLT-4 leukemia): > 56.7 µM
TGI (NCI-H226 lung): 19.1 µM
TGI (NCI-H23 lung): 21.8 µM
TGI (NCI-H460 lung): 19.3 µM
TGI (NCI-H522 lung): 16 µM
TGI (NCI/ADR-RES ovarian): > 100 µM
TGI (OVCAR-3 ovarian): 24.5 µM
TGI (OVCAR-4 ovarian): 20.3 µM
TGI (OVCAR-5 ovarian): 28.6 µM
TGI (OVCAR-8 ovarian): 23.3 µM
TGI (PC-3 prostate): 18.5 µM
TGI (RPMI-8226 leukemia): 9.83 µM
TGI (RXF 393 renal): 21.3 µM
TGI (SF-268 CNS): 24.7 µM
TGI (SF-295 CNS): > 55.2 µM
TGI (SF-539 CNS): 21.6 µM
TGI (SK-MEL-2 melanoma): 8.06 µM
TGI (SK-MEL-28 melanoma): 18.4 µM
TGI (SK-MEL-5 melanoma): 4.96 µM
TGI (SK-OV-3 ovarian): 40 µM
TGI (SN12C renal): 16.9 µM
TGI (SNB-19 CNS): 18.7 µM
TGI (SNB-75 CNS): 18.2 µM
TGI (SR leukemia): 16.5 µM
TGI (SW-620 colon): 63.3 µM
TGI (T-47D breast): 35.8 µM
TGI (TK-10 renal): 23.5 µM
TGI (U251 CNS): 15.8 µM
TGI (UACC-257 melanoma): 8.8 µM
TGI (UACC-62 melanoma): 14.9 µM
TGI (UO-31 renal): > 81.5 µM
